Reference: patent US20070128217A1 (priority 2003, published 2007)

How the values were obtained:
[1] = tested on: antibodies in sera from SARS patients (sera 1a, 1b, 2, 6, 37, 62, London, SARS-yellow, SARS-green); assay type: binding, human; set-up: Binding of serum 6 to linear peptides of protein X1 of SARS-CoV Urbani / Binding of serum 37 to linear peptides of protein X1 of SARS-CoV Urbani / Binding of serum 6 to looped/cyclic peptide (PEPSCAN-ELISA) / Binding of serum 37 to looped/cyclic peptide (PEPSCAN-ELISA) / Binding of serum 37 to looped/cyclic peptides of protein X1 of SARS-CoV Urbani / Binding of serum 6 to linear peptides of protein X2 / Binding of serum 37 to linear peptides of protein X2 / Binding of serum 37 to looped/cyclic peptides of protein X2 of SARS-CoV Urbani / Binding of serum 6 to linear peptides of protein M of SARS-CoV Urbani / Binding of serum 37 to linear peptides of protein M of SARS-CoV Urbani / Binding of serum 6 to looped/cyclic peptides of protein M of SARS-CoV Urbani / Binding of serum 37 to looped/cyclic peptides of protein M of SARS-CoV Urbani / Binding of serum 6 to linear peptides of protein X3 of SARS-CoV Urbani / Binding of serum 37 to linear peptides of protein X3 of SARS-CoV Urbani / Binding of serum 37 to looped/cyclic peptides of protein X3 of SARS-CoV Urbani / Binding of serum 6 to linear peptides of protein X4 of SARS-CoV Urbani / Binding of serum 37 to linear peptides of protein X4 of SARS-CoV Urbani / Binding of serum 37 to looped/cyclic peptides of protein X4 of SARS-CoV Urbani / Binding of serum 6 to linear peptides of protein X5 of SARS-CoV Urbani / Binding of serum 37 to linear peptides of protein X5 of SARS-CoV Urbani / Binding of serum 37 to looped/cyclic peptides of protein X5 of SARS-CoV Urbani / Binding of serum 6 to linear peptides of protein N of SARS-CoV Urbani / Binding of serum 37 to linear peptides of protein N of SARS-CoV Urbani / Binding of serum 6 to linear peptide (PEPSCAN-ELISA) / Binding of serum 1a to looped/cyclic peptides of protein N of SARS-CoV Urbani / Binding of serum 1b to looped/cyclic peptides of protein N of SARS-CoV Urbani / Binding of serum 2 to looped/cyclic peptides of protein N of SARS-CoV Urbani / Binding of serum 6 to looped/cyclic peptides of protein N of SARS-CoV Urbani / Binding of serum 37 to looped/cyclic peptides of protein N of SARS-CoV Urbani / Binding of serum 62 to looped/cyclic peptides of protein N of SARS-CoV Urbani / Binding of serum London to looped/cyclic peptides of protein N of SARS-CoV Urbani / Binding of serum SARS-green to looped/cyclic peptides of protein N of SARS-CoV Urbani: unit not given here
[2] = tested on: control sera (pooled serum of ten healthy LUMC hospital workers; commercial negative donor pooled serum from the Dutch bloodbank); assay type: binding, human; set-up: Binding of Control serum LUMC to linear peptides / Binding of Control serum Blood-bank to linear peptides / Binding of Control serum LUMC to looped peptides / Binding of Control Serum Blood-Bank to Looped peptides / Binding of Control serum LUMC to linear peptides of the protein M of SARS-CoV Urbani / Binding of Control serum Blood-bank to linear peptides of the protein M of SARS-CoV Urbani / Binding of Control serum LUMC to looped peptides of the protein M of SARS-CoV Urbani / Binding of Control Serum Blood-Bank to Looped peptides of the protein M of SARS-CoV Urbani: unit not given here
[3] = tested on: rabbit serum obtained by immunizing a rabbit with the SARS-CoV strain Frankfurt 1; assay type: binding; set-up: Binding of a rabbit serum to linear peptides / Binding of a rabbit serum to looped peptides / Rabbit serum linear peptides / Rabbit serum looped peptides / Binding of a rabbit serum to linear peptides of protein N of SARS-CoV Urbani (Rabbit serum linear peptides) / Binding of a rabbit serum to looped/cyclic peptides of protein N of SARS-CoV Urbani (Rabbit serum looped peptides): unit not given here

Question: With ELKQLLEQWNLVIGF as the sequence, how does the “Binding of serum 1a to linear peptides of protein M of SARS-CoV Urbani” value [1] read?
Answer: 0.8

Question: And the “Binding of serum 1a to looped/cyclic peptides of protein M of SARS-CoV Urbani” value [1]?
Answer: 0.6

Question: What about the “Binding of serum 1b to linear peptides of protein M of SARS-CoV Urbani” value [1] of the same sequence?
Answer: 0.8

Question: And the “Binding of serum 1b to looped/cyclic peptides of protein M of SARS-CoV Urbani” value [1]?
Answer: 0.6

Question: And the “Binding of serum 2 to linear peptides of protein M of SARS-CoV Urbani” value [1]?
Answer: 0.5

Question: What about the “Binding of serum 2 to looped/cyclic peptides of protein M of SARS-CoV Urbani” value [1] of the same sequence?
Answer: 0.5

Question: And the “Binding of serum 6 to linear peptides of protein M of SARS-CoV Urbani” value [1]?
Answer: 0.6

Question: What about the “Binding of serum 6 to looped/cyclic peptides of protein M of SARS-CoV Urbani” value [1] of the same sequence?
Answer: 0.8

Question: And the “Binding of serum 37 to linear peptides of protein M of SARS-CoV Urbani” value [1]?
Answer: 0.6

Question: And the “Binding of serum 37 to looped/cyclic peptides of protein M of SARS-CoV Urbani” value [1]?
Answer: 0.7

Question: And the “Binding of serum 62 to linear peptides of protein M of SARS-CoV Urbani” value [1]?
Answer: 0.5

Question: What about the “Binding of serum 62 to looped/cyclic peptides of protein M of SARS-CoV Urbani” value [1] of the same sequence?
Answer: 0.5

Question: And the “Binding of serum London to linear peptides of protein M of SARS-CoV Urbani” value [1]?
Answer: 0.6

Question: And the “Binding of serum London to looped/cyclic peptides of protein M of SARS-CoV Urbani” value [1]?
Answer: 0.3

Question: What about the “Binding of serum SARS-green to linear peptides of protein M of SARS-CoV Urbani” value [1] of the same sequence?
Answer: 0.5

Question: And the “Binding of serum SARS-green to looped/cyclic peptides of protein M of SARS-CoV Urbani” value [1]?
Answer: 0.7

Question: And the “Binding of serum SARS-yellow to linear peptides of protein M of SARS-CoV Urbani” value [1]?
Answer: 0.3

Question: What about the “Binding of serum SARS-yellow to looped/cyclic peptides of protein M of SARS-CoV Urbani” value [1] of the same sequence?
Answer: 0.9

Question: What about the “Binding of Control Serum Blood-Bank to Looped peptides of the protein M of SARS-CoV Urbani” value [2] of the same sequence?
Answer: 0.6

Question: And the “Binding of Control serum Blood-bank to linear peptides of the protein M of SARS-CoV Urbani” value [2]?
Answer: 0.8

Question: And the “Binding of Control serum LUMC to linear peptides of the protein M of SARS-CoV Urbani” value [2]?
Answer: 0.7

Question: And the “Binding of Control serum LUMC to looped peptides of the protein M of SARS-CoV Urbani” value [2]?
Answer: 0.7

Question: And the “Rabbit serum linear peptides” value [3]?
Answer: 0.0

Question: What about the “Rabbit serum looped peptides” value [3] of the same sequence?
Answer: 0.2

Question: ELYSPLFLIVAALVF was tested. Which “Binding of serum 1a to linear peptides of protein X4 of SARS-CoV Urbani” value [1] did it give?
Answer: 0.7

Question: What about the “Binding of serum 1a to looped/cyclic peptides of protein X4 of SARS-CoV Urbani” value [1] of the same sequence?
Answer: 0.6

Question: What about the “Binding of serum 1b to linear peptides of protein X4 of SARS-CoV Urbani” value [1] of the same sequence?
Answer: 0.4

Question: What about the “Binding of serum 1b to looped/cyclic peptides of protein X4 of SARS-CoV Urbani” value [1] of the same sequence?
Answer: 0.4

Question: What about the “Binding of serum 2 to linear peptides of protein X4 of SARS-CoV Urbani” value [1] of the same sequence?
Answer: 0.4

Question: What about the “Binding of serum 2 to looped/cyclic peptides of protein X4 of SARS-CoV Urbani” value [1] of the same sequence?
Answer: 0.6

Question: And the “Binding of serum 6 to linear peptides of protein X4 of SARS-CoV Urbani” value [1]?
Answer: 0.4

Question: And the “Binding of serum 6 to looped/cyclic peptides of protein X4 of SARS-CoV Urbani” value [1]?
Answer: 0.4

Question: What about the “Binding of serum 37 to linear peptides of protein X4 of SARS-CoV Urbani” value [1] of the same sequence?
Answer: 0.6

Question: And the “Binding of serum 37 to looped/cyclic peptides of protein X4 of SARS-CoV Urbani” value [1]?
Answer: 0.6

Question: And the “Binding of serum 62 to linear peptides of protein X4 of SARS-CoV Urbani” value [1]?
Answer: 0.6

Question: And the “Binding of serum 62 to looped/cyclic peptides of protein X4 of SARS-CoV Urbani” value [1]?
Answer: 0.6

Question: And the “Binding of serum London to linear peptides of protein X4 of SARS-CoV Urbani” value [1]?
Answer: 0.5

Question: And the “Binding of serum London to looped/cyclic peptides of protein X4 of SARS-CoV Urbani” value [1]?
Answer: 0.2

Question: What about the “Binding of serum SARS-green to linear peptides of protein X4 of SARS-CoV Urbani” value [1] of the same sequence?
Answer: 0.5

Question: And the “Binding of serum SARS-green to looped/cyclic peptides of protein X4 of SARS-CoV Urbani” value [1]?
Answer: 0.5

Question: What about the “Binding of serum SARS-yellow to linear peptides of protein X4 of SARS-CoV Urbani” value [1] of the same sequence?
Answer: 0.2

Question: And the “Binding of serum SARS-yellow to looped/cyclic peptides of protein X4 of SARS-CoV Urbani” value [1]?
Answer: 0.6

Question: What about the “Binding of Control Serum Blood-Bank to Looped peptides” value [2] of the same sequence?
Answer: 0.7

Question: What about the “Binding of Control serum Blood-bank to linear peptides” value [2] of the same sequence?
Answer: 0.5

Question: And the “Binding of Control serum LUMC to linear peptides” value [2]?
Answer: 0.3

Question: What about the “Binding of Control serum LUMC to looped peptides” value [2] of the same sequence?
Answer: 0.7

Question: And the “Rabbit serum linear peptides” value [3]?
Answer: 0.4

Question: And the “Rabbit serum looped peptides” value [3]?
Answer: 0.5

Question: What does the source list for EPCPSGTYEGNSPFH?
Answer: Binding of serum 1a to linear peptides of protein X4 of SARS-CoV Urbani [1]: 0.7; Binding of serum 1a to looped/cyclic peptides of protein X4 of SARS-CoV Urbani [1]: 0.8; Binding of serum 1b to linear peptides of protein X4 of SARS-CoV Urbani [1]: 0.5; Binding of serum 1b to looped/cyclic peptides of protein X4 of SARS-CoV Urbani [1]: 0.6; Binding of serum 2 to linear peptides of protein X4 of SARS-CoV Urbani [1]: 0.4; Binding of serum 2 to looped/cyclic peptides of protein X4 of SARS-CoV Urbani [1]: 0.7; Binding of serum 6 to linear peptides of protein X4 of SARS-CoV Urbani [1]: 0.5; Binding of serum 6 to looped/cyclic peptides of protein X4 of SARS-CoV Urbani [1]: 0.6; Binding of serum 37 to linear peptides of protein X4 of SARS-CoV Urbani [1]: 0.6; Binding of serum 37 to looped/cyclic peptides of protein X4 of SARS-CoV Urbani [1]: 0.7; Binding of serum 62 to linear peptides of protein X4 of SARS-CoV Urbani [1]: 0.7; Binding of serum 62 to looped/cyclic peptides of protein X4 of SARS-CoV Urbani [1]: 0.6; Binding of serum London to linear peptides of protein X4 of SARS-CoV Urbani [1]: 0.7; Binding of serum London to looped/cyclic peptides of protein X4 of SARS-CoV Urbani [1]: 0.4; Binding of serum SARS-green to linear peptides of protein X4 of SARS-CoV Urbani [1]: 0.6; Binding of serum SARS-green to looped/cyclic peptides of protein X4 of SARS-CoV Urbani [1]: 0.5; Binding of serum SARS-yellow to linear peptides of protein X4 of SARS-CoV Urbani [1]: 0.9; Binding of serum SARS-yellow to looped/cyclic peptides of protein X4 of SARS-CoV Urbani [1]: 0.5; Binding of Control Serum Blood-Bank to Looped peptides [2]: 0.6; Binding of Control serum Blood-bank to linear peptides [2]: 0.6; Binding of Control serum LUMC to linear peptides [2]: 0.5; Binding of Control serum LUMC to looped peptides [2]: 0.8; Rabbit serum linear peptides [3]: 0.6; Rabbit serum looped peptides [3]: 0.4
